EP3925949A1, “AZIDO COMPOUNDS AND METHOD FOR MONITORING ACID CERAMIDASE ACTIVITY IN INTACT CELLS USING THEM” (Consejo Superior de Investigaciones Científicas (CSIC), priority 2020, dated 2021)

Legend:
[1] = biological target: T1, human recombinant neutral ceramidase (NC) (Homo sapiens, UniProt Q9NR71); assay: Hydrolysis of RBM5-177 by recombinant NC, UPLC-HRMS; format: biochemical; conditions: RBM5-177 5 µM, 30 min
T1 construct: purchased R&D Systems
Experimental: Cells were seeded at 5 × 10^5 cells/mL into 6 well plates (1 mL/well) and were allowed to adhere for 24 h. Medium was replaced with fresh medium containing RBM5-177, RBM5-019 or RBM2-37 (5 µM final concentration). After 30 min, medium was removed; cells were washed with 400 µL PBS and harvested with 400 µL Trypsin-EDTA and 600 µL of medium. NC recombinant enzyme, lysates from A375-AC overexpressing cells, MEF5 or microsomes from HeLa T-Rex ACER1-TET-ON and HeLa T-Rex […] activity buffer. Cell pellets were resuspended with 100 µL of H2O and mixed with 750 µL of methanol: chloroform, 2:1. Samples were heated at 48°C overnight and next day, 75 µL of 1 M KOH in methanol were added, followed by 2 h incubation at 37°C. Afterwards, the saponification was neutralised with 75 µL of 1 M acetic acid and solvent was removed using a Speed Vac Savant SPD131 DDA (Thermo Scientific). Sphingolipid extracts, fortified with internal standards (N-dodecanoylsphingosine, N-dodecanoylglucosylsphingosine, N-dodecanoylsphingosylphosphorylcoline and C17-sphinganine 0.2 nmol each) were solubilised in 150 µL of methanol. Samples were then centrifuged at 9,300 g for 3 min and 130 µL of the supernatant were injected to a Waters Aquity UPLC system connected to a Waters LCT Premier Orthogonal Accelerated Time of Flight Mass Spectrometer (Waters,Milford, MA, USA) operated in positive electrospray ionisation mode. […]

[2] = biological target: T2, alkaline ceramidases 1 (ACER1) (Homo sapiens, UniProt Q8TDN7); assay: Hydrolysis of RBM5-177 by microsomes of ACER1 overexpressing cells, UPLC-HRMS; format: biochemical; conditions: microsomes from ACER1 overexpressing cells, RBM5-177 5 µM, 30 min
T2 construct: expressed in transfected cells; host or cells: HeLa T-Rex ACER1-TET-ON, tetracycline-induced; microsomes
T2 sequence (Q8TDN7 1-264): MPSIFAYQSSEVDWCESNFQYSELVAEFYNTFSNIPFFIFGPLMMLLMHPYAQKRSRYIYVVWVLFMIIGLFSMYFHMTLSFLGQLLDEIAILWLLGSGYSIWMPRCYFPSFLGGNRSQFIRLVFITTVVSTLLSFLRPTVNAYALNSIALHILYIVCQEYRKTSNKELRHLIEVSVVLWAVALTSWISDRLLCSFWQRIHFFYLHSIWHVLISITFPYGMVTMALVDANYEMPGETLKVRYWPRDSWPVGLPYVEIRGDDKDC
Experimental: Cell lysates obtained from HeLa T-Rex ACER1-TET-ON, HeLa T-Rex ACER2-TET-ON and MEF5 overexpressing ACER3 cells were transferred to ultracentrifuge tubes and were spun at 100000 g for 1 h at 4°C. Pellets were resuspended in a 0.25 M saccharose solution and protein concentration was determined as specified below.
Cells were seeded at 5 × 10^5 cells/mL into 6 well plates (1 mL/well) and were allowed to adhere for 24 h. Medium was replaced with fresh medium containing RBM5-177, RBM5-019 or RBM2-37 (5 µM final concentration). After 30 min, medium was removed; cells were washed with 400 µL PBS and harvested with 400 µL Trypsin-EDTA and 600 µL of medium. NC recombinant enzyme, lysates from A375-AC overexpressing cells, MEF5 or microsomes from HeLa T-Rex ACER1-TET-ON and HeLa T-Rex […] activity buffer. Cell pellets were resuspended with 100 µL of H2O and mixed with 750 µL of methanol: chloroform, 2:1. Samples were heated at 48°C overnight and next day, 75 µL of 1 M KOH in methanol were added, followed by 2 h incubation at 37°C. Afterwards, the saponification was neutralised with 75 µL of 1 M acetic acid and solvent was removed using a Speed Vac Savant SPD131 DDA (Thermo Scientific). […]

acid ceramidase (AC) = biological target: T3, acid ceramidase (AC) (Homo sapiens, UniProt Q13510); assay: AC activity in intact cells by UPLC-HRMS quantification of RBM5-019 and reacylated products; format: cell-based; set-up: expressed in transfected cells; host or cells: A375/+Dox (overexpressing AC); conditions: A375/+Dox
T3 sequence (Q13510 143-395 limits assumed): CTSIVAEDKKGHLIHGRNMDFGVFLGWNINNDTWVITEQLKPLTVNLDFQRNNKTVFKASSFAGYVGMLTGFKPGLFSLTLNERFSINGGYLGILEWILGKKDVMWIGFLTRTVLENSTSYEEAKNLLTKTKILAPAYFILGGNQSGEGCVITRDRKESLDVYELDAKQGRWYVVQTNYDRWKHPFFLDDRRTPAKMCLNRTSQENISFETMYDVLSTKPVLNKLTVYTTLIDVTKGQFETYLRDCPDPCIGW
T3 sequence (Q13510 22-142 limits assumed): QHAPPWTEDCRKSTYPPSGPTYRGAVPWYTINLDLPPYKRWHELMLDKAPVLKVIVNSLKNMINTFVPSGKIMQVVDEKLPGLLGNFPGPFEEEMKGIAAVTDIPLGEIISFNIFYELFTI
Experimental: Cells were seeded at 5 × 10^5 cells/mL into 6 well plates (1 mL/well) and were allowed to adhere for 24 h. Medium was replaced with fresh medium containing RBM5-177, RBM5-019 or RBM2-37 (5 μM final concentration). After 30 min, medium was removed; cells were washed with 400 μL PBS and harvested with 400 μL Trypsin-EDTA and 600 μL of medium. NC recombinant enzyme, lysates from A375-AC overexpressing cells, MEF5 or microsomes from HeLa T-Rex ACER1-TET-ON and HeLa T-Rex ACER2-TET-ON cells stably overexpress ACER1 orACER2 respectively were incubated with RBM5-177 or RBM5-019 (10 μM final concentration) for 3 h in the corresponding ceramidase activity buffer. Cell pellets were resuspended with 100 μL of H2O and mixed with 750 μL of methanol: chloroform, 2:1. Samples were heated at 48°C overnight and next day, 75 μL of 1 M KOH in methanol were added, followed by 2 h incubation at 37°C. Afterwards, the saponification was neutralised with 75 μL of 1 M acetic acid and solvent was removed using a […] (Thermo Scientific). Sphingolipid extracts, fortified with internal standards (N-dodecanoylsphingosine, N-dodecanoylglucosylsphingosine, N-dodecanoylsphingosylphosphorylcoline and C17-sphinganine 0.2 nmol each) were solubilised in 150 μL of methanol. Samples were then centrifuged at 9,300 g for 3 min and 130 μL of the supernatant were injected to a Waters Aquity UPLC system connected to a Waters LCT Premier Orthogonal Accelerated Time of Flight Mass Spectrometer (Waters,Milford, MA, USA) operated in positive electrospray ionisation mode. Full scan spectra from 50 to 1500 Da were acquired and individual spectra were summed to produce data points each 0.2 s. Mass accuracy and reproducibility were maintained by using an independent reference spray by the LockSpray interference. The analytical column was a 100 mm x2.1 mm i.d., 1.7 μm C8 Acquity UPLC BEH (Waters). The two mobile phases were phase A: methanol/water/formic acid (74/25/1 v/v/v); phase B: methanol/formic acid (99/1 v/v), both also contained 5 mM ammonium formate. […]

T1 sequence (Q9NR71 whole entry): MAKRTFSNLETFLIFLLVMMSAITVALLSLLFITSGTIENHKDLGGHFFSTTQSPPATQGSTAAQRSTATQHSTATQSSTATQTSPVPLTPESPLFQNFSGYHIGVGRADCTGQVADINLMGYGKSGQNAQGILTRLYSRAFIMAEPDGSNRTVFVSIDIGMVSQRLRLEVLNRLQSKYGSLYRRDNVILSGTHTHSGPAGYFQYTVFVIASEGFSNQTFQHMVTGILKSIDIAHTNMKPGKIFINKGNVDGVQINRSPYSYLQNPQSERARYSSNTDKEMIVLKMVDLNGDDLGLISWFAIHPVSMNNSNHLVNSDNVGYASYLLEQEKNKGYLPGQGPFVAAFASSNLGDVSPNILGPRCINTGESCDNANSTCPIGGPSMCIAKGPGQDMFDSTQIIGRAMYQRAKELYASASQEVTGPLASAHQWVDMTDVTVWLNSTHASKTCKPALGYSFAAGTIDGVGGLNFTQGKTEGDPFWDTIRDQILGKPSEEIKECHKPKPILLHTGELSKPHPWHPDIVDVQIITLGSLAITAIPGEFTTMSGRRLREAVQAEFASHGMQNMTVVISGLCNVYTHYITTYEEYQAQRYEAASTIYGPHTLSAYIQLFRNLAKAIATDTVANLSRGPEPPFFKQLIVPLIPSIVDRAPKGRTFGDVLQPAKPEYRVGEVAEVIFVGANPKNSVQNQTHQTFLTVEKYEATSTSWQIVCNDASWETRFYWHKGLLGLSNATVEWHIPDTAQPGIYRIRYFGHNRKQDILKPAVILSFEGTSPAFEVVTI

Row | SMILES | RBM5-19 formation (hydrolysis as substrate) [1] | RBM5-19 formation (hydrolysis as substrate) [2] | effect on formation of RBM5-19 and transacylated products (acid ceramidase (AC); SOCLAC 5 µM 1 h, RBM5-177 5 µM 4 h (Fig. 4B)) | effect on levels of RBM5-19 and reacylated products (acid ceramidase (AC); SOCLAC 5 µM 1 h pre treatment, RBM5-177 5 µM 4 h (Fig. 6B))
1 | CCCCCCCC(=O)N[C@@H](C)[C@H](O)CCCCCCCCCCCCN=[N+]=[N-] [RBM5-177, N-((2S,3R)-15-azido-3-hydroxypentadecan-2-yl)octanamide] | transformed into the free amine only by AC | transformed into the free amine only by AC |  | 
2 | CCCCCCCCCCCCC/C=C/[C@@H](O)[C@H](CO)NC(=O)CCl [SOCLAC] |  |  | precluded the formation of both RBM5-19 and transacylated products | dropped dramatically
